# From patent US20130123255A1, “COMBINATION OF A PI3K INHIBITOR AND A MEK INHIBITOR” (CHUGAI SEIYAKU KABUSHIKI KAISHA, priority 2011, published 2013)
# What was measured:
# [1] = tested on: ERK phosphorylation in HCT116 cells; experiment: Western blot of MAPK pathway, ERK phosphorylation; assay type: cell-based
# Description: (§1) To investigate the combination effect on PI3K and MAPK pathway, compound of formula (I) and compound of formula (II) were tested on HCT116 cells.
# (§2) 5×10^5 of cells were treated with compound of formula (I) alone, compound of formula (II) alone or the combination thereof at 1 μM for 24 hours in 6-well plate. After that, HCT116 cells were lysed with Cell Lysis Buffer (Cell Signaling Technology) containing protease and phosphatase inhibitors. The lysates were denatured and then subjected to SDS-PAGE. After electroblotting, the polyvinylidene fluoride membranes were blocked with Blocking One (Nacalai Tesque) for 1 h. Membranes were then incubated with primary antibodies purchased from Cell Signaling Technology Inc., and anti-actin antibody purchased from Santa Cruz Biotechnology over night at 4° C., followed by washing three times with 0.1% Tween 20 (Nacalai Tesque) in TBS buffer (TBS-T buffer; TaKaRa Bio). This was followed by 0.5 to 1 h incubation at room temperature with secondary antibodies (Cell Signaling Technology). Then, membranes were washed four times with TBS-T buffer, followed by incubation with ECL or ECL-plus solutions (GE Healthcare). Signals were detected using LAS-4000 (Fujifilm) according to the manufacturer's instructions.
# [2] = tested on: Akt phosphorylation in HCT116 cells; experiment: Western blot of PI3K pathway, Akt phosphorylation; assay type: cell-based; details: 1 μM, 24 hours, FIG. 3
# Description: as §1, §2
SMILES,phosphorylation of ERK [1],phosphorylation of Akt [2]
"O=C(NOCCO)c1cc(CN2OCCCC2=O)c(F)c(F)c1Nc1ccc(I)cc1F [compound of formula (I), 3,4-difluoro-2-(2-fluoro-4-iodo-phenylamino)-N-(2-hydroxy-ethoxy)-5-(3-oxo-[1,2]oxazinan-2-ylmethyl)-benzamide]",suppressed,–
"CS(=O)(=O)N1CCc2c(-c3cnc(N)nc3)nc(N3CCOCC3)nc21 [compound of formula (II), 5-(7-methanesulfonyl-2-morpholin-4-yl-6,7-dihydro-5H-pyrrolo[2,3-d]pyrimidin-4-yl)-pyrimidin-2-ylamine]",–,suppressed
